Results from ChEMBL document CHEMBL1142427, “Cytotoxic triterpenoid saponins acylated with monoterpenic acid from Pithecellobium lucidum” (J Nat Prod, 2008).
pIC50: −log10 of the molar value.

Key:
Bel-7402 = test: Cytotoxicity against human Bel7402 cells after 96 hrs by MTT assay; format: functional, cell-based; settings: Bel-7402, 96 h
BGC-823 = test: Cytotoxicity against human BGC823 cells after 96 hrs by MTT assay; format: functional, cell-based; settings: BGC-823, 96 h
HCT-8 = test: Cytotoxicity against human HCT8 cells after 96 hrs by MTT assay; format: functional, cell-based; settings: HCT-8, 96 h
A549 = test: Cytotoxicity against human A549 cells after 96 hrs by MTT assay; format: functional, cell-based; settings: A549, 96 h
A2780 = test: Cytotoxicity against human A2780 cells after 96 hrs by MTT assay; format: functional, cell-based; settings: A2780, 96 h
[1] = Toxicity in rabbit erythrocytes assessed as hemolysis at 0.01 uM to 100 uM; format: cell-based, Oryctolagus cuniculus; settings: erythrocyte

SMILES | pIC50 (Bel-7402) | pIC50 (BGC-823) | pIC50 (HCT-8) | pIC50 (A549) | pIC50 (A2780) | Activity [1]
C=C[C@](C)(O)CC/C=C(\CO)C(=O)O[C@H]1C[C@]2(C(=O)O[C@@H]3O[C@H](CO)[C@@H](O)[C@H](O)[C@H]3O[C@@H]3O[C@@H](C)[C@H](O[C@@H]4O[C@@H](CO)[C@H](O)[C@H]4O)[C@@H](O[C@@H]4O[C@H](CO)[C@@H](O)[C@H](O)[C@H]4O)[C@H]3O)[C@H](O)C[C@]3(C)C(=CC[C@@H]4[C@@]5(C)CC[C@H](O[C@@H]6O[C@H](CO[C@@H]7O[C@H](C)[C@H](O)[C@H](O)[C@H]7O[C@@H]7OC[C@@H](O)[C@H](O)[C@H]7O)[C@@H](O)[C@H](O)[C@H]6O)C(C)(C)[C@@H]5CC[C@]43C)[C@@H]2CC1(C)C [PITHELUCOSIDE B] | 5.60 | < 5.00 | < 5.00 | < 5.00 | 5.91 | Non-toxic
CC[C@@]1(O)C(=O)OCc2c1cc1n(c2=O)Cc2cc3ccccc3nc2-1 [CAMPTOTHECIN] | 4.90 | 5.01 | 5.50 | 5.51 | 6.55 | 
C=C[C@@](C)(CC/C=C(\CO)C(=O)O[C@H]1C[C@]2(C(=O)O[C@@H]3O[C@H](CO)[C@@H](O)[C@H](O)[C@H]3O[C@@H]3O[C@@H](C)[C@H](O[C@@H]4O[C@@H](CO)[C@H](O)[C@H]4O)[C@@H](O[C@@H]4O[C@H](C)[C@@H](O)[C@H](O)[C@H]4O)[C@H]3O)[C@H](O)C[C@]3(C)C(=CC[C@@H]4[C@@]5(C)CC[C@H](O[C@@H]6O[C@H](CO[C@@H]7O[C@H](C)[C@H](O)[C@H](O)[C@H]7O[C@@H]7OC[C@@H](O)[C@H](O)[C@H]7O)[C@@H](O)[C@H](O)[C@H]6O)C(C)(C)[C@@H]5CC[C@]43C)[C@@H]2CC1(C)C)O[C@@H]1O[C@H](C)[C@@H](O)[C@H](O)[C@H]1O [PITHELUCOSIDE A] | < 5.00 | < 5.00 | < 5.00 | < 5.00 | < 5.00 | Non-toxic
C/C(=C\CO)CC/C=C(\CO)C(=O)O[C@H]1C[C@]2(C(=O)O[C@@H]3O[C@H](CO)[C@@H](O)[C@H](O)[C@H]3O[C@@H]3O[C@@H](C)[C@H](O[C@@H]4O[C@@H](CO)[C@H](O)[C@H]4O)[C@@H](O[C@@H]4O[C@H](CO)[C@@H](O)[C@H](O)[C@H]4O)[C@H]3O)[C@H](O)C[C@]3(C)C(=CC[C@@H]4[C@@]5(C)CC[C@H](O[C@@H]6O[C@H](CO[C@@H]7O[C@H](C)[C@H](O)[C@H](O)[C@H]7O[C@@H]7OC[C@@H](O)[C@H](O)[C@H]7O)[C@@H](O)[C@H](O)[C@H]6O)C(C)(C)[C@@H]5CC[C@]43C)[C@@H]2CC1(C)C [PITHELUCOSIDE C] | 5.12 | < 5.00 | 5.37 | < 5.00 | 5.78 | Non-toxic
C[C@H]1O[C@@H](OC[C@H]2O[C@@H](O[C@H]3CC[C@]4(C)[C@H]5CC=C6[C@@H]7CC(C)(C)[C@@H](O)C[C@]7(C(=O)O)[C@H](O)C[C@@]6(C)[C@]5(C)CC[C@H]4C3(C)C)[C@H](O)[C@@H](O)[C@@H]2O)[C@H](O[C@@H]2OC[C@@H](O)[C@H](O)[C@H]2O)[C@@H](O)[C@H]1O | < 5.00 | < 5.00 | < 5.00 | < 5.00 | < 5.00 | Non-toxic
C=C[C@@](C)(CC/C=C(\CO)C(=O)O[C@H]1C[C@]2(C(=O)O[C@@H]3O[C@H](CO)[C@@H](O)[C@H](O)[C@H]3O[C@@H]3O[C@@H](C)[C@H](O[C@@H]4O[C@@H](CO)[C@H](O)[C@H]4O)[C@@H](O[C@@H]4O[C@H](CO)[C@@H](O)[C@H](O)[C@H]4O)[C@H]3O)[C@H](O)C[C@]3(C)C(=CC[C@@H]4[C@@]5(C)CC[C@H](O[C@@H]6O[C@H](CO[C@@H]7O[C@H](C)[C@H](O)[C@H](O)[C@H]7O[C@@H]7OC[C@@H](O)[C@H](O)[C@H]7O)[C@@H](O)[C@H](O)[C@H]6NC(C)=O)C(C)(C)[C@@H]5CC[C@]43C)[C@@H]2CC1(C)C)O[C@@H]1O[C@H](C)[C@@H](O)[C@H](O)[C@H]1O [JULIBROSIDE J29] | 5.78 | 5.72 | 5.82 | 5.74 | 6.21 | Non-toxic
C=C[C@@](C)(CC/C=C(\CO)C(=O)O[C@H]1C[C@]2(C(=O)O[C@@H]3O[C@H](CO)[C@@H](O)[C@H](O)[C@H]3O[C@@H]3O[C@@H](C)[C@H](O[C@@H]4O[C@@H](CO)[C@H](O)[C@H]4O)[C@@H](O[C@@H]4O[C@H](CO)[C@@H](O)[C@H](O)[C@H]4O)[C@H]3O)[C@H](O)C[C@]3(C)C(=CC[C@@H]4[C@@]5(C)CC[C@H](O[C@@H]6O[C@H](CO[C@@H]7O[C@H](C)[C@H](O)[C@H](O)[C@H]7O[C@@H]7OC[C@@H](O)[C@H](O)[C@H]7O)[C@@H](O)[C@H](O)[C@H]6O)C(C)(C)[C@@H]5CC[C@]43C)[C@@H]2CC1(C)C)O[C@@H]1O[C@H](C)[C@@H](O)[C@H](O)[C@H]1O | < 5.00 | < 5.00 | 5.82 | < 5.00 | 5.87 | Non-toxic
